Experimental data published in patent US20130197480A1, “METHODS AND SYSTEMS FOR DELIVERY OF LIVE CELLS” (PALOMAR MEDICAL TECHNOLOGIES, INC., priority 2012, published 2013).

System: Human fibroblast cells in culture
Assay: Common laser pre-treatment compounds incubated 45 min with cultured human fibroblasts, visual inspection
Settings: for Viability/Inspection 24 hrs / Viability/Inspector 1 week: cells rinsed, fresh media; for Viability/Inspection 24 hrs: observed 24 hours post exposure; for Viability/Inspector 1 week: observed one week post exposure; for Viability/nspection 45 min: visual inspection after 45 minutes incubation with compound
Procedure: AG07999 human skin fibroblasts (HSF; Coriell, Camden, N.J.) were grown to confluence in minimal essential media (MEM; Gibco, Grand Island, N.Y.) supplemented with 10% FBS (Hyclone, Logan, Utah), 20 mM L-glutamine, and 20 mM Glutamax™ (Gibco). Cells were maintained in an incubator at 37° C. and 5% CO2 and serially passaged with trypsin digestion at a 1:3 ratio as needed.
This example describes in vitro (in silico) testing of compounds added to human fibroblast cell cultures to determine any detrimental effects to the cells.
The remaining compositions and mixtures were tested as they are expected to be common treatments that might be used for numbing or cleansing of skin prior to laser treatment and cell delivery, or coagulation compounds, that are available in most physician offices. […] In addition, the delivery vehicle for SRF and lidocaine were tested to determine which vehicle (cream, lotion, petrolatum, lipoderm) was least destructive to the cells.

Compound	Viability/Inspection 24 hrs	Viability/Inspector 1 week	Viability/nspection 45 min
CNC[C@H](O)c1ccc(O)c(O)c1 [Epinephrine 1:10,000,000, Epinephrine]	Normal	Confluent/overgrown	Normal
CNC[C@H](O)c1ccc(O)c(O)c1 [Epinephrine 1:100,000, Epinephrine]	Normal	Confluent/overgrown	Slight change in morphology,
CCN(CC)CC(=O)Nc1c(C)cccc1C [Lidocaine 0.5%, Lidocaine]	Normal	Confluent/overgrown	Normal
